pIC50: −log10 of the molar value.
What was measured:
[1] = Secondary pharmacology panel of >190 in vitro radioligand binding and enzyme assays; settings: hits: HDAC5, HDAC7, COX2 and DAT
Procedure: Second pharmacology screening was performed at Eurofins Pharma Discovery Services in a panel of 190 in vitro radioligand binding and enzyme assays covering a diverse set of enzymes, receptors, ion channels, and transporters.

COPD HBEC ALI cultures [2] = assay: Paracellular permeability (FITC-dextran) in unchallenged ALI cultures; format: cell-based, human; settings: 10 μM basolaterally for eight days, no challenge, four COPD donors, p = 0.0023
Procedure: Passage one cells were seeded into T75 cell culture flasks (250,000 cells/flask) and expanded in PneumaCult ExPlus medium (StemCell Technologies, Vancouver, Canada) at 37°C, 5% CO2. Once cells reached 70% confluency, they were dissociated with TrypLE Express dissociation media (Thermo Fisher Scientific, Waltham, USA) and frozen at -150°C in ExPlus with 10% DMSO. Passage two cells were thawed and seeded (20,000 cells/membrane) into 24-well HTS Transwell plates (Corning, Wiesbaden, Germany) for air-liquid interface (ALI) culturing. Cells were expanded in ExPlus medium until >50% confluent (four days). Apical medium was then removed, and basolateral medium was replaced with PneumaCult ALI medium (StemCell Technologies). Medium was changed three times per week during a four-week long differentiation phase.
The paracellular permeability was determined by using fluorescein isothiocyanate labeled 4kD-dextran (Sigma-Aldrich, St. Louis, USA). 18 hours after addition of 0.2 mg FITC-dextran in 200 μL medium to the apical side of the ALI cultures, the fluorescence in the basolateral medium was measured using PHERAstar FSX (excitation 485 nm and emission 520 nm) (BMG LABTECH, Ortenberg, Germany). The time point was chosen for optimal window in the assays as well as practical reasons and has been kept consistent in between different stimulations throughout this work. […]

COPD HBEC ALI cultures [3] = assay: Western blot of membrane protein from ALI cell cultures; format: cell-based, human; settings: 10 μM, TNF-challenged, four COPD donors, trend observed
Procedure: For extraction of membrane and cytosol proteins the cells were lysed according to the Mem-PER Plus Membrane Protein Kit protocol (#89842, ThermoFisher Scientific). The supernatants were kept frozen in −80°C until total protein quantification. Quantification of total protein in the lysates was done using Pierce BCA Protein Assay Kit (#23227, Thermo Scientific) following the manufacturer´s instructions. Lysates containing 8 μg total protein were mixed with NuPAGE LDS Sample buffer 4x (NP007, Invitrogen), NuPAGE Sample Reducing Agent 10x (NP004, Invitrogen) and deionized water and then heated for ten minutes at 70°C. The samples were loaded onto NuPAGE 4–12% Bis-Tris Gels (NP0335, Invitrogen) and run at 120V for 100 minutes in NuPAGE MOPS SDS Running buffer (NP0001, Invitrogen). The proteins were transferred to nitrocellulose membranes (LC2001, Invitrogen) at 35 mA overnight using NuPAGE Transfer buffer (NP0006, Invitrogen) supplemented with 20% methanol. The membranes were stained with Revert Total Protein Stain (926–11011, LI-COR Biosciences) for five minutes, washed and then imaged in the 700 nm channel using Odyssey CLX imaging system (LI-COR Biosciences). To correct for variation in loading the total signal intensity of all proteins in each lane were used for normalization. An inter-membrane control sample was loaded to all gels to assure there were no differences due to methodology between the blots. The stain was removed with Revert Destaining Solution (926–11013, LI-COR Biosciences) and the membranes were blocked in Intercept (TBS) Blocking Buffer (927–60001, LI-COR Biosciences) for one hour on a shaker. […] After a final wash, three times for ten minutes in TBS-T, the fluorescent signals were detected using the Odyssey CLX imaging system and the signals were analysed using Image Studio software (v4.0, LI-COR Biosciences).

[4] = Plasma protein binding, human blood plasma; format: in vitro ADME
Procedure: Plasma protein binding analysis was performed as reported previously using human blood plasma samples [52].

COPD HBEC ALI cultures [5] = assay: TGF-β1 challenge in ALI, FITC-dextran permeability; format: cell-based, human; settings: 10 μM pre-treatment 3 days, TGF-β 0.4, 2 and 10 ng/ml for 48 hours, two COPD donors
Procedure: The paracellular permeability was determined by using fluorescein isothiocyanate labeled 4kD-dextran (Sigma-Aldrich, St. Louis, USA). 18 hours after addition of 0.2 mg FITC-dextran in 200 μL medium to the apical side of the ALI cultures, the fluorescence in the basolateral medium was measured using PHERAstar FSX (excitation 485 nm and emission 520 nm) (BMG LABTECH, Ortenberg, Germany). The time point was chosen for optimal window in the assays as well as practical reasons and has been kept consistent in between different stimulations throughout this work. Data was plotted as fold-change of 0.1% DMSO control.
Permeability was measured after 48 hours.

HDAC3 = molecular target: T1, HDAC3 (Homo sapiens, UniProt O15379); assay: HDAC enzymatic activity (Eurofins); format: biochemical; settings: Class I; ACY-1083 mean of two separate measurements, Ricolinostat and Tubastatin A one measurement
T1 construct: purchased Eurofins Pharma Discovery Services 2083

[6] = Spike test in ALI cell media (stability and binding to plastic and media components); format: in vitro ADME
Procedure: Compound concentration was then analysed after 18hrs incubation at 37 °C by LC-MSMS (Method DMPK&BAC 001–04).

[7] = test system: deacetylation of α-tubulin; set-up: method as in PMID 28267067; settings: read-out: cell potency (IC50), inhibition of deacetylation of α-tubulin; cited from earlier work
hERG = molecular target: T2, hERG (Homo sapiens, UniProt Q12809); assay: Cardiovascular ion channel panel, SyncroPatch 384PE patch clamp; format: cell-based; settings: CHO K1 cell line, room temperature, 6 point cumulative assay
T2 construct: expressed in transfected cells; host or cells: Chinese hamster ovary K1 cell line

[8] = 10 μM spiked into cell media, 18 hrs

T1 sequence (O15379 whole entry): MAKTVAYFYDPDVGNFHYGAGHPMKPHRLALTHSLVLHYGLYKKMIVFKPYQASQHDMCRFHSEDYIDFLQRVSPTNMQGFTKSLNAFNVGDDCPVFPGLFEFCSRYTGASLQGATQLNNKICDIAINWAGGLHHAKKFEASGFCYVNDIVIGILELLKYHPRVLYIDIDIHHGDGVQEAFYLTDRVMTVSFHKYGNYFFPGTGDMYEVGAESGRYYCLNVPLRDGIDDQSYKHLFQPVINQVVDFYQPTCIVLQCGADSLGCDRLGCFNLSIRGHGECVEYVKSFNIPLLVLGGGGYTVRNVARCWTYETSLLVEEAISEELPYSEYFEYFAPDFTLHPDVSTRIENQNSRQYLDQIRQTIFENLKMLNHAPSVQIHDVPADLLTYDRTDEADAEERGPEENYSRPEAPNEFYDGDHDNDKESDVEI
T1 sequence (Q9Y618 395-489 partner limits assumed): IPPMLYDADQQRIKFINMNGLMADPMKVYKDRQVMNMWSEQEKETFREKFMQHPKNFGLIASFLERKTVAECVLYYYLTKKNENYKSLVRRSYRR
T2 sequence (Q12809 whole entry): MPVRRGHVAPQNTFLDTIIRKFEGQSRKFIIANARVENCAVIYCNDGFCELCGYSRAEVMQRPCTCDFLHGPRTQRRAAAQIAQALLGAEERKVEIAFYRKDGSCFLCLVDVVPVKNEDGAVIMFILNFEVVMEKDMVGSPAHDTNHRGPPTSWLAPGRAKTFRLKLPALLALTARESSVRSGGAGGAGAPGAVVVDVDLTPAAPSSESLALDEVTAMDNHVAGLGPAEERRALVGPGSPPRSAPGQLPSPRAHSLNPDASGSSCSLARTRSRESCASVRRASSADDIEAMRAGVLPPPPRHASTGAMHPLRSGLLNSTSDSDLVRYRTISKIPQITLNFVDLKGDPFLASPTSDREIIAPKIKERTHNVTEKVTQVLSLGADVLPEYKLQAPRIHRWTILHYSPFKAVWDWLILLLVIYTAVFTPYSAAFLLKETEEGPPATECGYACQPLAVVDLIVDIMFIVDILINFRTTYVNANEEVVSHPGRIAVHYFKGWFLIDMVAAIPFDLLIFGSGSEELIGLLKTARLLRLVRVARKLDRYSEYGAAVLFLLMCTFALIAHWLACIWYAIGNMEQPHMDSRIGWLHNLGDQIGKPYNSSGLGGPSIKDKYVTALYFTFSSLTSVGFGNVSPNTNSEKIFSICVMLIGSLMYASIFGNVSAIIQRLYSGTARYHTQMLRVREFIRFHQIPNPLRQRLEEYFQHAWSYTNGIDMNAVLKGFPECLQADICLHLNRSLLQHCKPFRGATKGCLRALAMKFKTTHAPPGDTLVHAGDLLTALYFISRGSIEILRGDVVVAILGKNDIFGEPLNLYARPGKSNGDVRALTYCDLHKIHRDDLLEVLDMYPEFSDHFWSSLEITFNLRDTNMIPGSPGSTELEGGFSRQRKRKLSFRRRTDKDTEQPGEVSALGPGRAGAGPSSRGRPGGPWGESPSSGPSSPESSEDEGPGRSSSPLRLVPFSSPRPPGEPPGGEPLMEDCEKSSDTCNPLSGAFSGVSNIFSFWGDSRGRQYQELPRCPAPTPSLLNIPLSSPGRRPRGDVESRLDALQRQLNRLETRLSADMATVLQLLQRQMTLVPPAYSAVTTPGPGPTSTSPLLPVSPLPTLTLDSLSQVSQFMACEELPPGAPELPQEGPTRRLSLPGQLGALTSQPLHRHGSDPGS

In the case of ACY-1083, the “hits below 10 μM in HDAC isoform panel and secondary pharmacology safety panels” value [1] was 4, the “passage of FITC-dextran (paracellular permeability)” value (COPD HBEC ALI cultures [2]) was “significantly reduced” and the “E-cadherin level in membrane fraction” value (COPD HBEC ALI cultures [3]) was “not significantly higher”. The “Occludin level in membrane fraction” value (COPD HBEC ALI cultures [3]) was “not significantly higher”, the “β-catenin level in membrane fraction” value (COPD HBEC ALI cultures [3]) was “not significantly higher” and the free fraction [4] was 23%. The “stability in human plasma” value [4] was “stable”, the “paracellular permeability after TGF-β challenge” value (COPD HBEC ALI cultures [5]) was “decreased it at all concentrations” and the pIC50 (HDAC3) was under 4.06. The “drug concentration after 18 hrs” value ([6]; 10 μM spiked into ALI cell media in a test tube, 37 °C, LC-MSMS) was about 4 µM, the “compound lost in the system” value [6, 8] was 60% and the “remaining after spike test” value [6, 8] was “approximately 40%”. For the same substance, the pIC50 [7] was 7.00 to 7.52 and the “activity on hERG” value (hERG) was over 30 µM.
